This is an account of results in US12281079B2, “Quinoline derivatives, processes for their preparation and uses thereof for the treatment of cancer” (Lead Discovery Center GmbH, priority 2019, dated 2025).

A value given as a limit tells only on which side of the number the result lay.

The target of this assay is mitochondrial RNA polymerase (POLRMT) (Mus musculus, UniProt Q8BKF1). The assay is described as follows: Homogeneous TR-FRET assay for mitochondrial transcription activity. Type of assay: biochemical. As to conditions: homogeneous TR-FRET assay according to Example 4. The source says: The TR-FRET assay was basically conducted as described in WO2016/193231A1, especially as described in example 1 (hereby incorporated by reference). With respect to the back ground of the mitochondrial transcription it is referred to Falkenberg et al. (2002) and Posse et al. (Posse et al., 2015). The method monitors the activity of mitochondrial RNA-polymerase via detection of the formation of its product, a 407 bp long RNA sequence. Detection of the product is facilitated by hybridization of two DNA-oligonucleotide probes to specific and adjacent sequences within the RNA product sequence. Upon annealing of the probes, two fluorophores that are coupled directly to an acceptor nucleotide probe (ATT0647, 5′) or introduced via a coupled streptavidin interacting with a biotinylated donor nucleotide probe on the other side (Europium cryptate, 3′) are brought into sufficient proximity to serve as a fluorescence-donor-acceptor pair as generally described in Walters and Namchuk (2003). Thus, a FRET signal at 665 nm is generated upon excitation at 340 nm.
mitochondrial RNA polymerase (POLRMT), sequence (Q8BKF1 42-1207): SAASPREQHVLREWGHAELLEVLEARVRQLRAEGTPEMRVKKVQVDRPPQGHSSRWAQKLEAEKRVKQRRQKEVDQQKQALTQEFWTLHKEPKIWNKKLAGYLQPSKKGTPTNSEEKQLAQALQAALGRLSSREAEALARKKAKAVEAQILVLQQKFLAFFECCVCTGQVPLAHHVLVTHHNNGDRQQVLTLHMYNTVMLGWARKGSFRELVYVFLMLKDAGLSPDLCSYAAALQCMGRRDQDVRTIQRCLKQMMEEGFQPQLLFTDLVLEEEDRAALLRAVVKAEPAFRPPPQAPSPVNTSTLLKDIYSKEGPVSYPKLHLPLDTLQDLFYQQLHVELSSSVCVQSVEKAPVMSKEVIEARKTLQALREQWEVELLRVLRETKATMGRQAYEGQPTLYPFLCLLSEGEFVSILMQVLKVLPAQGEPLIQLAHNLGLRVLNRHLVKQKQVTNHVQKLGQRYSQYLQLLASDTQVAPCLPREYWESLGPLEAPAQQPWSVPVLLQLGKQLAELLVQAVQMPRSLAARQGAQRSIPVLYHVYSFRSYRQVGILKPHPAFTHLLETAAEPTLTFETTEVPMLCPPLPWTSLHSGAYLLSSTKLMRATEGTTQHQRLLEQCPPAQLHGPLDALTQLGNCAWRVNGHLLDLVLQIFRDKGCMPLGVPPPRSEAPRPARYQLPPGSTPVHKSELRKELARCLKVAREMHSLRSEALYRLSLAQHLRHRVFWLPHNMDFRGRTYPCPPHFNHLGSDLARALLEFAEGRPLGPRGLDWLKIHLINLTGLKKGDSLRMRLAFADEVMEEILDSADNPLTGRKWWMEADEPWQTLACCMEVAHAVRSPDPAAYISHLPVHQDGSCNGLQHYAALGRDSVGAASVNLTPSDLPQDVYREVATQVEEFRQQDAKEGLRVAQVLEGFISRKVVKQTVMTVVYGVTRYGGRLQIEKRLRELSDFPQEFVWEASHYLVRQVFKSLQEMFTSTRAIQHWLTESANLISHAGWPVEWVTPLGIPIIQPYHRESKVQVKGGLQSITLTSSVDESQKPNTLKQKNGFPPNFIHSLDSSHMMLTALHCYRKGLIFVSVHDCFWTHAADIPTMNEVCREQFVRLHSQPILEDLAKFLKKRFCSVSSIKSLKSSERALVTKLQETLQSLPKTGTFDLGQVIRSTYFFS
Briefly, the protocol described here was applied for screening and activity determination in a low-volume 384-well microtiter plate with non-binding surface. For high-throughput application in the 1536-well microtiter plate format, volumes of the reagent mixes were adjusted, maintaining the volumetric ratio. Proteins POLRMT (NM_172551.3), TFAM (NM_009360.4) and TFB2M (NM_008249.4) were diluted from their stocks to working concentrations of 150 nM, 1.8 μM and 330 nM respectively, in a dilution buffer containing 100 mM Tris-HCl pH 8.0, 200 mM NaCl, 10% (v/v) glycerole, 2 mM glutathione (GSH), 0.5 mM EDTA and 0.1 mg/mL BSA. Protein dilutions and template DNA, comprising a pUC18 plasmid encoding the mitochondrial light strand promoter, restriction linearized proximal to the promoter 3′-end (pUC-LSP), were mixed at the twofold final assay-concentration in a reaction buffer, containing 10 mM Tris-HCl pH 7.5, 10 mM MgCl2, 40 mM NaCl, 2 mM GSH, 0.01% (w/v) Tween-20 and 0.1 mg/mL BSA.
5 μL of this mix were dispensed, depending on the chosen microtiter plate format, using multi-channel pipettes or a Multidrop® dispenser (Thermo Fisher Scientific, Waltham Mass.) into the wells of a microtiter plate and incubated at room temperature (rt) for 10 min. Chemical compounds under scrutiny in the assay were applied using contact-free acoustic droplet-dispensing (Echo520® Labcyte Inc., Sunnyvale Calif.) from 10 mM compound stocks in 100% DMSO, to a final concentration of 10 μM or in serial dilution series of the required concentration range. Equal amounts of DMSO without any compound were added to positive control samples, followed by an incubation step at rt for 10 min.
The enzymatic reaction was started by the addition of 5 μL of a mix of dNTPs in reaction buffer to a final concentration of 500 μM each. No nucleotide mix was added to negative control samples. The content of the wells was mixed using a VarioTeleshaker™ (Thermo Fisher Scientific, Waltham Mass.) at 1500 rpm for 45 sec after which the microtiter plate was centrifuged at 500×g for 1 min. The samples were incubated for 2 h at rt with humidity control to avoid evaporation. The detection reagents were prepared in a buffer that was composed, such that the enzymatic reaction was terminated due to chelating of Mg-ions and increased ionic strength, containing 50 mM Tris-HCl pH 7.5, 700 mM NaCl, 20 mM EDTA, and 0.01% (w/v) Tween-20. Importantly Eu-cryptate-coupled streptavidin had to be preincubated with a 100-fold molar excess of a random sequence oligonucleotide for 10 min at rt in the dark to block unspecific binding of single stranded RNA to the protein. Subsequently, the blocked streptavidin(-Eu) was mixed with the DNA-probes on ice and kept away from light until use. […]
For `C[C@@H](Oc1ccc2c(-c3ccc(F)cc3Cl)ccnc2c1)C(=O)N1CC2(COC2)C1` [Compound 218, (2R)-2-[[4-(2-chloro-4-fluoro-phenyl)-7-quinolyl]oxy]-1-(2-oxa-6-azaspiro[3.3]heptan-6-yl)propan-1-one], the IC50 was in the range of 1 to 10 µM.
`CCOC(=O)C[C@H]1CCCN(C(=O)[C@@H](C)Oc2ccc3c(-c4ccc(F)cc4Cl)cc(Cl)nc3c2)C1` [Compound 93, ethyl 2-[(3R)-1-[(2R)-2-[[2-chloro-4-(2-chloro-4-fluoro-phenyl)-7-quinolyl]oxy]propanoyl]-3-piperidyl]acetate] registered an IC50 of 1 to 10 µM.
In the case of `C[C@H](Oc1ccc2c(-c3ccc(F)cc3Cl)ccnc2n1)C(=O)N1CCC[C@H](C(=O)O)C1` [Compound 127, (3S)-1-[(2S)-2-[[5-(2-chloro-4-fluoro-phenyl)-1,8-naphthyridin-2-yl]oxy]propanoyl]piperidine-3-carboxylic acid], the IC50 was 1 to 10 µM.
In the case of `CCOC(=O)c1cccc(NC(=O)[C@@H](C)Oc2ccc3c(-c4ccc(F)cc4Cl)ccnc3c2)c1` [Compound 108, ethyl 3-[[(2 R)-2-[[4-(2-chloro-4-fluoro-phenyl)-7-quinolyl]oxy]propanoyl]amino]benzoate] it was 1 to 10 µM; in that of `CC(C)NC(=O)C(C)Oc1ccc2c(-c3ccc(F)cc3Cl)ccnc2n1` (racemic) [Compound 109, 2-[[5-(2-chloro-4-fluoro-phenyl)-1,8-naphthyridin-2-yl]oxy]-N-isopropyl-propanamide], 1 to 10 µM.
`C[C@@H](Oc1ccc2c(-c3ccccc3Br)ccnc2c1)C(=O)N1CCC[C@H](CC(=O)O)C1` [Compound 142, 2-[(3R)-1-[(2R)-2-[[4-(2-bromophenyl)-7-quinolyl]oxy]propanoyl]-3-piperidyl]acetic acid] yielded an IC50 of less than 0.02 µM.
In turn, `C[C@@H](Oc1ccc2c(-c3ccccc3OC(F)(F)F)ccnc2c1)C(=O)N1CCC[C@H](CC(=O)O)C1` [Compound 137, 2-[(3R)-1-[(2R)-2-[[4-[2-(trifluoromethoxy)phenyl]-7-quinolyl]oxy]propanoyl]-3-piperidyl]acetic acid] yielded an IC50 of 1 to 10 µM.
Turning to `CNC(=O)[C@H]1CCCN(C(=O)[C@@H](C)Oc2ccc3c(-c4ccc(F)cc4Cl)cc(Cl)nc3c2)C1` [Compound 105, (3S)-N-methyl-1-[(2R)-2-[[2-chloro-4-(2-chloro-4-fluoro-phenyl)-7-quinolyl]oxy]propanoyl]piperidine-3-carboxamide], the IC50 lay in the range of 1 to 10 µM.
In the case of `COc1cccc(Cl)c1-c1ccnc2cc(O[C@H](C)C(=O)N3CCC[C@H](CC(=O)O)C3)ccc12` [Compound 152, 2-[(3R)-1-[(2R)-2-[[4-(2-chloro-6-methoxy-phenyl)-7-quinolyl]oxy]propanoyl]-3-piperidyl]acetic acid] it was 1 to 10 µM; in that of `CC(Oc1ccc2c(-c3ccccc3Cl)ccnc2c1)C(=O)N1CCC[C@H](C(=O)O)C1` (mixture of isomers) [Compound 23, rac-(3S)-1-[2-[[4-(2-chlorophenyl)-7-quinolyl]oxy]propanoyl]piperidine-3-carboxylic acid], 0.02 to 0.1 µM.
`Cc1cccc(Cl)c1-c1ccnc2cc(O[C@H](C)C(=O)N3CCC[C@H](CC(=O)O)C3)ccc12` [Compound 141, 2-[(3R)-1-[(2R)-2-[[4-(2-chloro-6-methyl-phenyl)-7-quinolyl]oxy]propanoyl]-3-piperidyl]acetic acid] yielded an IC50 of less than 0.02 µM.
As to `C[C@@H](Oc1ccc2c(-c3ccc(F)cc3Cl)ccnc2c1)C(=O)N1C[C@H]2C[C@@H]1CN2` [Compound 217, (2R)-2-[[4-(2-chloro-4-fluoro-phenyl)-7-quinolyl]oxy]-1-[(1R)-2,5-diazabicyclo[2.2.1]heptan-2-yl]propan-1-one], the IC50 lay within 1 to 10 µM.
Consider `C[C@@H](Oc1ccc2c(-c3ccc(F)cc3Cl)ccnc2c1)C(=O)Nc1ccc(CCO)cc1` [Compound 125, (2R)-2-[[4-(2-chloro-4-fluoro-phenyl)-7-quinolyl]oxy]-N-[4-(2-hydroxyethyl)phenyl]propanamide], for which the IC50 is 1 to 10 µM.
Consider `CCOC(=O)[C@H]1CCCN(C(=O)COc2ccc3c(-c4ccccc4Cl)ccnc3c2)C1` [Compound 87, ethyl (3S)-1-[2-[[4-(2-chlorophenyl)-7-quinolyl]oxy]acetyl]piperidine-3-carboxylate], for which the IC50 fell in the range of 1 to 10 µM.
Compound `CC(C)OC(=O)COc1ccc2c(-c3ccccc3Cl)ccnc2c1` [Compound 82, isopropyl 2-[[4-(2-chlorophenyl)-7-quinolyl]oxy]acetate] gave an IC50 of 1 to 10 µM.
With `CCOC(=O)C1CCN(C(=O)[C@@H](C)Oc2ccc3c(-c4ccc(F)cc4Cl)ccnc3c2)CC1` [Compound 58, ethyl 1-[(2R)-2-[[4-(2-chloro-4-fluoro-phenyl)-7-quinolyl]oxy]propanoyl]piperidine-4-carboxylate], the IC50 fell in the range of 0.1 to 1 µM.
In the case of `Cc1cccc(C)c1-c1ccnc2cc(O[C@H](C)C(=O)N3CCC[C@H](S(N)(=O)=O)C3)ccc12` [Compound 138, (3S)-1-[(2R)-2-[[4-(2,6-dimethylphenyl)-7-quinolyl]oxy]propanoyl]piperidine-3-sulfonamide] it was less than 0.02 µM.
As for `Cc1ccccc1-c1ccnc2cc(OCC(N)=O)ccc12` [Compound 106, 2-((4-(o-tolyl)quinolin-7-yl)oxy)acetamide], the IC50 is 1 to 10 µM.
For the compound `COC(=O)C1CC(NC(=O)[C@@H](C)Oc2ccc3c(-c4ccccc4Cl)cc(Cl)nc3c2)C1` (stereo partly drawn) [Compound 97, methyl 3-[[(2R)-2-[[2-chloro-4-(2-chlorophenyl)-7-quinolyl]oxy]propanoyl]amino]cyclobutanecarboxylate], the 50% inhibitory concentration (IC50) was 1 to 10 µM.
Compound `CCOC(=O)c1ccc(NC(=O)[C@@H](C)Oc2ccc3c(-c4ccc(F)cc4Cl)ccnc3c2)cc1` [Compound 51, ethyl 4-[[(2R)-2-[[4-(2-chloro-4-fluoro-phenyl)-7-quinolyl]oxy]propanoyl]amino]benzoate] had an IC50 of 0.1 to 1 µM.
For the compound `C[C@@H](Oc1ccc2c(-c3ccc(F)cc3Cl)cc(Cl)nc2c1)C(=O)N1CCCCC1` [Compound 107, (2R)-2-[[2-chloro-4-(2-chloro-4-fluoro-phenyl)-7-quinolyl]oxy]-1-(1-piperidyl)propan-1-one], the IC50 fell in the range of 1 to 10 µM.
Turning to `C[C@@H](Oc1ccc2c(-c3ccccc3Cl)cc(Cl)nc2c1)C(=O)N1CCN(C(=O)CN)CC1` [Compound 85, (2R)-1-[4-(2-aminoacetyl)piperazin-1-yl]-2-[[2-chloro-4-(2-chlorophenyl)-7-quinolyl]oxy]propan-1-one], the IC50 fell in the range of 1 to 10 µM.
In the case of `Cc1cc(F)cc(C)c1-c1ccnc2cc(O[C@H](C)C(=O)N3CCC[C@H](C(=O)O)C3)ccc12` [Compound 84, (3S)-1-[(2R)-2-[[4-(4-fluoro-2,6-dimethyl-phenyl)-7-quinolyl]oxy]propanoyl]piperidine-3-carboxylic acid] it was less than 0.02 µM.
Turning to `Cc1ccccc1-c1cc(Cl)nc2cc(O[C@H](C)C(=O)O)ccc12` [Compound 43, (2R)-2-[[2-chloro-4-(o-tolyl)-7-quinolyl]oxy]propanoic acid], the IC50 lay in the range of 0.1 to 1 µM.
`C[C@@H](Oc1ccc2c(-c3ccccc3F)ccnc2c1)C(=O)N1CCC[C@H](CC(=O)O)C1` [Compound 110, 2-[(3R)-1-[(2R)-2-[[4-(2-fluorophenyl)-7-quinolyl]oxy]propanoyl]-3-piperidyl]acetic acid]: the IC50 lay within 1 to 10 µM.
Compound `CCOC(=O)[C@H]1CCN(C(=O)[C@@H](C)Oc2ccc3c(-c4ccc(F)cc4Cl)ccnc3c2)C1` [Compound 75, ethyl (3S)-1-[(2R)-2-[[4-(2-chloro-4-fluoro-phenyl)-7-quinolyl]oxy]propanoyl]pyrrolidine-3-carboxylate] returned an IC50 of 0.1 to 1 µM.
